Non-standard residues stand in square brackets, D forms with d. Residues, ends and D or L forms follow the SMILES beside them. dPhe(4-Cl) = N[C@H](Cc1ccc(Cl)cc1)C(=O)O

The test system of test [1] is MCF-7 human mammary carcinoma cell line. In words: Inhibition of colony formation (dose-survival), Example 48. In kind it is cell-based. The source says:
MCF-7 human mammary carcinoma cell line was stabilized in 1973 by Soule et al. from the pleural fluid of a patient suffering from mammary carcinoma. MDA-MB-231 human mammary carcinoma cell line was isolated and stabilized by Cailleau et al. in 1974 similarly from pleural fluid. Both cell lines grow in monolayer. […] MCF-7 cell line is estradiol receptor (ER)-positive containing proteins specifically binding GnRH. Thus, it represents, a useful model system for investigating the direct effect of GnRH mediated by the GnRH receptor. Being ER-negative and GnRH receptor-positive, MDA-MB-231 cell line is similarly suitable to study the direct effect of GnRH. PC3 human prostate carcinoma cell line was stabilized in cell culture by Kaighn et al. in 1979. The cells are of epithelial type and form compact colonies in clonogenic assays. The Ishikawa cell line originates from human endometrial adenocarcinoma [M. Nishida et al.: Acta Obstet. Gynecol. Jpn. 37, 1103-1111 (1985)], it is epithelial in its character and contains steroid-as well as GnRH receptors. The examination gives accurate information about the cell-damaging effect of the substance tested as a function of varying doses. The treatment was carried out once; the colonies formed from the surviving cells were counted after 8-12 days. […] A part of the arrested cells again entered the cycle, an other part of them might be destroyed (apoptosis). […] The treatment was once carried out 24 hours after setting, then the colonies formed were counted after 8-12 days. The cells were treated once after 24 hours with 1-50 μM of various GnRH analogues of Examples above or with 1-50 μM of GnRH-III, respectively. The percentages of inhibition obtained on MCF-7, MDA-MB-231, PC3 and Ishikawa cells, respectively, together with the dose of the active agent used are shown in Table VIII.

For test [2], the system named is MDA-MB-231 human mammary carcinoma cell line. The description is as above. In kind it is cell-based. The text has this: (§1) MCF-7 human mammary carcinoma cell line was stabilized in 1973 by Soule et al. from the pleural fluid of a patient suffering from mammary carcinoma. MDA-MB-231 human mammary carcinoma cell line was isolated and stabilized by Cailleau et al. in 1974 similarly from pleural fluid. Both cell lines grow in monolayer. MCF-7 and MDA-MB-231 human mammary carcinoma cell lines are maintained in plastic flasks (Greiner), in Dulbecco-modified Eagle-MEM (DMEM, GIBCO) liquid nutrient medium containing 10% of fetal calf serum. MCF-7 cell line is estradiol receptor (ER)-positive containing proteins specifically binding GnRH. Thus, it represents, a useful model system for investigating the direct effect of GnRH mediated by the GnRH receptor. Being ER-negative and GnRH receptor-positive, MDA-MB-231 cell line is similarly suitable to study the direct effect of GnRH. PC3 human prostate carcinoma cell line was stabilized in cell culture by Kaighn et al. in 1979. The cells are of epithelial type and form compact colonies in clonogenic assays. The Ishikawa cell line originates from human endometrial adenocarcinoma [M. Nishida et al.: Acta Obstet. Gynecol. Jpn. 37, 1103-1111 (1985)], it is epithelial in its character and contains steroid-as well as GnRH receptors.
(§2) The examination gives accurate information about the cell-damaging effect of the substance tested as a function of varying doses. The treatment was carried out once; the colonies formed from the surviving cells were counted after 8-12 days. […] A part of the arrested cells again entered the cycle, an other part of them might be destroyed (apoptosis). […] In the case of a dose-response investigation, colonies containing less than 15 cells were not counted. 300 cells were put into each Petri dishes of 3.5 cm in diameter. The treatment was once carried out 24 hours after setting, then the colonies formed were counted after 8-12 days. The cells were treated once after 24 hours with 1-50 μM of various GnRH analogues of Examples above or with 1-50 μM of GnRH-III, respectively. The percentages of inhibition obtained on MCF-7, MDA-MB-231, PC3 and Ishikawa cells, respectively, together with the dose of the active agent used are shown in Table VIII.

A further test relates to MXT mouse mammary tumour. Nature of the test: In vivo antitumour effect on MXT mouse mammary tumour. Also noted: species or system CBA/Ca mice. The procedure:
The MXT mouse mammary carcinoma contains ER and PgR proteins; furthermore, it contains also GnRH receptors; therefore, this in vivo tumor model is suitable for studying both the direct and indirect effects. The treatment of mice bearing MXT mammary tumour was commenced on the day following transplantation. […] The animals were daily treated in s.c. route starting from the day following transplantation of MXT mouse mammary tumour. […] MI-1544: 75 μg/day/animal; MI-1892: 75 μg/day/animal.

In test [3] the test system is Ishikawa endometrium tumour cell culture. In words: Inhibition of colony formation (dose-survival), Example 48. Type of test: cell-based, human. The settings on record: 50 μM.
Excerpt: as §1, §2

The subject of test [4] is PC3 prostate tumour cell culture. The test is described as above. Type of test: cell-based, human. The settings on record: for % Inhibition of colony formation: 50 μM; for Effect on colony-forming ability: within the dose range used (1-50 μM).
Excerpt: as §1, §2

For a further test, the system named is human tumor cell lines. In words: Colony formation, Example 48, comparison with control D-Trp6-hGnRH. The settings on record: data of Table VIII. In kind it is cell-based. The protocol: as §2
In these studies the D-Trp6-hGnRH analogue (Sigma Co.) commonly used in the tumour therapy was employed as control.

Test [5] deals with MCF-7 human mammary carcinoma cell line. In words: Inhibition of colony formation (dose-survival), Example 18. In kind it is cell-based. The conditions noted are these: 50 μM. The text has this: (§3) Human cell lines used in in vitro experiments. MCF-7 human mammary tumour cell line was stabilized in 1973 by Soule et al. from the pleural fluid of mammary carcinoma patients. The cells grow in monolayer and are epithelial in their character. MDA-MB-231 human mammary carcinoma cell line was isolated and stabilized in 1974 by Cailleau et al. similarly from pleural fluid. These cells also grow in monolayer. PC3 human prostate carcinoma cell line was stabilized 20 in 1979 in cell culture by Kaighn et al.; the cells are of simple epithelium type and form compact colonies in clonogenic assays. Ishikawa cell line originated from adenocarcinoma of human endometrium [Nishida et al.: Obstet. Gynecol. Jpn, 37, 25 1103-1111 (1985)], has epithelial character and contains steroid as well as GnRH receptors. Human tumour cell lines are maintained in plastic flasks (Greiner) in Dulbecco-6modified Eagle-MEM (DMEM GIBCO) nutritive medium. The medium used herein contained 10% of fetal calf serum (FCS).
(§4) In the case of cytostatics the cell-damaging effect is not cell-specific. […] One part of the arrested cells again go into the cycle, the other part may perish (apoptosis). […] The investigations were carried out on MCF-7 and MDA-MB-231 human mammary carcinoma cell lines, PC3 human prostate 15 carcinoma cell line and Ishikawa human endometrium carcinoma cell line. Threehundred cells were set into Petri dishes of 3.5 cm in diameter each. The treatment was carried out once, 24 hours following the explantation, then the colonies formed were counted after 9 to 12 days.

In test [6] the test system is Ishikawa human endometrium carcinoma cell line. Described as above. In kind it is cell-based. The conditions noted are these: 50 μM.
Excerpt: as §3, §4

Test [7] concerns PC3 human prostate carcinoma cell line. Described as above. The conditions noted are these: 50 μM. In kind it is cell-based.
Excerpt: as §3, §4

Take `CC(C)C[C@H](NC(=O)[C@@H](Cc1c[nH]c2ccccc12)NC(=O)[C@H](Cc1ccc(O)cc1)NC(=O)[C@H](CO)NC(=O)[C@H](Cc1c[nH]c2ccccc12)NC(=O)[C@H](Cc1c[nH]cn1)NC(=O)[C@@H]1CCC(=O)N1)C(=O)N[C@@H](CCCNC(=N)N)C(=O)N1CCC[C@H]1C(=O)NCC(N)=O` [D-Trp6-hGnRH, pGlu-His-Trp-Ser-Tyr-D-Trp-Leu-Arg-Pro-Gly-NH2, reference compound]: the “% Inhibition of colony formation” value in test [1] (10 μM) was 17.1%; in test [1] (50 μM), 36.7%; in test [2] (10 μM), 15.7%; in test [2] (50 μM), 38.7%.

For `CC(=O)N[C@H](Cc1c[nH]c2ccccc12)C(=O)N[C@H](Cc1ccc(Cl)cc1)C(=O)N[C@H](Cc1c[nH]c2ccccc12)C(=O)N[C@@H](CO)C(=O)N[C@@H](Cc1ccc(O)cc1)C(=O)N[C@H](CCCCN)C(=O)N[C@@H](CC(C)C)C(=O)N[C@@H](CCCNC(=N)N)C(=O)N1CCC[C@H]1C(=O)N[C@H](C)C(N)=O` [MI-1544, Ac-D-Trp^1,3,D-Cpa^2,D-Lys^6, D-Ala^10-hGnRH] (Ac-[dW][dPhe(4-Cl)][dW]SY[dK]LRP[dA]-NH2), the “Tumour volume as control (%)” value with MXT mouse mammary tumour (75 μg/day/animal s.c., day 20) is given as 54%; in the test with MXT mouse mammary tumour (1 × 75 μg daily s.c., Treatment weeks: 20), 54%. In addition, the Inhibition % in the test with MXT mouse mammary tumour (1 × 75 μg daily s.c.) stood at 46%.

As to “Ac-D-Trp^1,3,D-Cpa2,{Lys[n-poly(N-vinylpyrrolidone-co-maleic acid)-Ahx]}5,[a-Asp(DEA)]6,D-Ala10-GnRH [P-Ahx-1892]”, the “% Inhibition of colony formation” value in [1] (50 μM) was determined as 31%.

Turning to Glu^6-GnRH-III [Compound 8], the “% Inhibition of colony formation” value in [3] was 2%; in test [4], 31%; in test [2] (50 μM), 25%. For the same compound, in the test on human tumor cell lines, the “Inhibitory effect on colony formation compared with control D-Trp6-hGnRH” value is “exceeded the inhibitory effect of control”.

Take H-Glu^1, D-Trp^6-hGnRH [Compound 19]: the “% Inhibition of colony formation” value in test [1] (10 μM) stood at 16.8%; in test [1] (50 μM), 32.7%. Also, in the test on human tumor cell lines, the “Inhibitory effect on colony formation compared with control D-Trp6-hGnRH” value is listed as “approximated the activity of the control”.

Consider Lys^5, D-Trp^6-hGnRH [Compound 17], for which the “% Inhibition of colony formation” value in [3] is 17%; in test [4] it was 18%; in [1] (50 μM) it was 65%; in test [2] (10 μM), 30%; in test [2] (50 μM) it was 63%. The “Effect on colony-forming ability” value in test [4] is given as “weakly inhibited”. For the same compound, the “Inhibitory effect on colony formation compared with control D-Trp6-hGnRH” value in the test on human tumor cell lines was “twice stronger inhibition”.

On to “Lys^5,cyclo[Asp^6-Lys^8]-GnRH-III [Compound 3]”, for which the “% Inhibition of colony formation” value in test [3] was determined as 13%; in [1] (50 μM), 44%; in [5] it was 44%; in test [6] it was 13%. The “Inhibitory effect on colony formation compared with control D-Trp6-hGnRH” value in the test on human tumor cell lines is on record as “exceeded the inhibitory effect of control”.

For Lys^5-GnRH-III [Compound 2], the “% Inhibition of colony formation” value in test [1] (50 μM) and in test [2] (50 μM) was 0% throughout.

Phe^7-GnRH-III [Compound 15]: the “Inhibitory effect on colony formation compared with control D-Trp6-hGnRH” value with human tumor cell lines is reported as “weak if any effect”. For the same compound, in test [2] (50 μM), the “% Inhibition of colony formation” value turned out to be 21%.

Turning to [Lys(ε-Ac)]^4-GnRH-III [Compound 7], the “% Inhibition of colony formation” value in test [3] is listed as 14%; in [4], 0%; in [1] (50 μM), 52%; in test [2] (10 μM), 31%; in test [2] (50 μM), 42%. The “Effect on colony-forming ability” value in test [4] is recorded as “did not influence”. In the test with human tumor cell lines, the “Inhibitory effect on colony formation compared with control D-Trp6-hGnRH” value was “exceeded the inhibitory effect of control”.

Regarding [Lys(ε-Fmoc)]^5-GnRH-III [Compound 1], the “Inhibitory effect on colony formation compared with control D-Trp6-hGnRH” value in the test with human tumor cell lines is given as “weak if any effect”.

Turning to “[Trp(For-Ind)]^3,7-GnRH-III [Compound 14]”, in test [3], the “% Inhibition of colony formation” value worked out at 24%. The “Inhibitory effect on colony formation compared with control D-Trp6-hGnRH” value with human tumor cell lines was “approximated the activity of the control”.

Take “{D-Lys[n-poly(N-vinylpyrrolidone-co-maleic acid)-Gly-Phe-Leu-Gly]}6,-GnRH [P-GFLG-609]”: in test [1] (10 μM), the “% Inhibition of colony formation” value worked out at 40%.

With “{Lys[n-poly(N-vinylpyrrolidone-co-maleic acid)-Gly-Phe-Leu-Gly-]}5,cyclo(Asp6-Lys8)-GnRH-III [P-GFLG-Lys5-cyclo(Asp6,Lys8)-GnRH-III]”, the “% Inhibition of colony formation” value in test [7] was determined as 100%; in test [6] it was 19%.

For the origin of these results see patent US20060189539A1, “Novel GnRH analogues with antitumour effects and pharmaceutical compositions thereof” (priority 1994, published 2006).
